From EP0055490A1, “Tetrahydro-1,2,4-oxadiazin-5-one derivatives, processes for their preparation and medicines containing these compounds” (RICHTER GEDEON VEGYÉSZETI GYÁR RT, priority 1980, dated 1982)

Key:
CFLP-Mäusen [1] = experiment: Maximal electroshock [MES] anticonvulsant test; format: in vivo; settings: Mus musculus, po; 20 mg/kg peroral, measured 1 hour after dosing, groups of 10 mice; corneal electrode 20 mA, 0,2 s; protection = absence of tonic hindlimb extension; read-out: Hemmwirkung in % in Bezug auf den maximalen Elektroschock
From the text: (§1) Die pharmakologischen Wirkungen der erfindungsgemäßen Tetrahydro-1,2,4-oxadiazin-5-onderivate der allgemeinen Formel I wurden in Tierversuchen nach den üblichen pharmakologischen Verfahrensweisen nachgewiesen, wobei als Vergleichssubstanzen die anerkannt gut wirksamen bekannten Handelsprodukte 5,5-Diphenylhydantoin [Vergleichssubstanz A] und 3-Methyl-5-äthyl-5-phenylhydantoin [Vergleißhssubstanz B] gleicher Wirkungsrichtung verwendet wurden. Die Tierversuche wurden mit CFLP-Mäusen (LATI, Gödöllo, Ungarn) von gemischtem Geschlecht (Körpergewicht: 18 bis 22 g) mit Gruppen von je 10 Tieren durchgeführt. Die zu untersuchenden Verbindungen wurden in einer 5%-igen wäßrigen Lösung von Polyoxyäthylensorbitanmonooleat [Tween 80® suspendiert und diese Suspensionen wurden.auf peroralem Wege mit einer Sonde den Tieren verabreicht. Die Wirkstoffe wurden in den zur Untersuchung der krampfhemmenden beziehungsweise antikonvulsiven Wirkung durchgeführten Versuchen in Dosen von 20 mg/kg Körpergewicht und zur Messung der neurotoxischen Wirkung in Dosen von 80 mg/kg Körpergewicht verabreicht. Die Wirkungen wurden 1 Stunde nach der Verabreichung durch die im folgenden beschriebenen Verfahrensweisen gemessen.
a) Maximaler Elektroschock [MES]
Die Tiere wurden nach der Verfahrensweise von E. A. Swinyard und Mitarbeitern (J. Pharmacol. 106 [1952], 319) mit einer Hornhautelektrode beziehungsweise Corneal--Elektrode (20 mA, 0,2 Sekunde) geschockt. 100% der Blindversuchs- beziehungsweise Kontrolltiere reagierten auf diesen Reiz mit einem tonischen Streckkrampf (extensorischen Krampf) der hinteren Gliedmaßen. Das Unterbleiben dieser Reaktion wurde als unter der Wirkung der Behandlung eingetretener Schutz gewertet.

Acute toxicity (LD50) = settings: mouse, in vivo, po; single peroral dose, 14 days observation, mice; read-out: Peroraler LD50-Wert (converted)
From the text: as §1
Die Toxizität der zu untersuchenden Verbindungen wurde nach 1-maliger Verabreichung von verschiedenen Dosen durch 14 Tage lange Beobachtung der Tiere ermittelt. Die LD50-Werte (die bei 50% der Tiere tödlichen Dosen) wurden auf Grund des Prozentsatzes der innerhalb 14 Tage verendeten Tiere berechnet.

CFLP-Mäusen [2] = experiment: Inhibition of pentamethylenetetrazole (pentetrazole) convulsion; format: in vivo; settings: Mus musculus, sc; 20 mg/kg peroral, 1 hour after dosing, groups of 10 mice; 125 mg/kg Pentamethylentetrazol subcutaneous; read-out: Hemmwirkung in % in Bezug auf den Pentamethylentetrazolkrampf tonischen Streckkrampf
From the text: as §1
b) Hemmwirkung gegen den Pentamethylentetrazolkrampf [Pentetrazolkrampf]
Es wurden 125 mg Pentamethylentetrazol/kg Körpergewicht nach der Verfahrensweise von Cr. N. Everett und R. K. Richards (J. Pharmacol. Exp: Therap. 81 [1944], 402) den Tieren subkutan verabreicht. 1 Stunde nach der Verabreichung des zu untersuchex den Wirkstoffes wurde die Wirkung beobachtet: Als Schutiwirkung wurde das Unterbleiben des klonischen Krampfes beriehungsweise des tonischen Streckkrampfes der hinteren GliedmaBen bewertet.

| Compound | responders at 20 mg/kg (CFLP-Mäusen [1]) | LD50 at 336 h (Acute toxicity (LD50)) | responders at 20 mg/kg (CFLP-Mäusen [2]) |
| --- | --- | --- | --- |
| CC(=O)N1OCC(=O)NC1c1cccc2ccccc12 (stereo not drawn) [Beispiel 15] | 40% | 800 mg/kg |  |
| CC(=O)N1OCC(=O)NC1c1ccc(F)cc1 (stereo not drawn) [Beispiel 13, 2-Acetyl-3-(4'-fluorphenyl)-tetrahydro-1,2,4-oxadiazin-5-on] | 40% | 800 mg/kg | 40% |
| CCC1(c2ccccc2)NC(=O)N(C)C1=O (stereo not drawn) [Vergleichssubstanz B, 3-Methyl-5-äthyl-5-phenylhydantoin, reference compound] | 10% | 476 mg/kg | 50% |
| CCOC(=O)N1OCC(=O)NC1c1ccccc1 (stereo not drawn) [Beispiel 89] |  | 1000 mg/kg | 20% |
| CC(=O)N1OC(Cc2ccccc2)C(=O)NC1c1ccccc1 (racemic) [Beispiel 60] |  | 1000 mg/kg | 20% |
| CC(=O)N1OC(C)C(=O)NC1c1ccccc1 (racemic) [Beispiel 61, 2-Acetyl-3-phenyl-6-methyltetrahydro-1,2,4-oxadiazin-5-on] | 20% | 1000 mg/kg | 50% |
| CC(=O)N1OCC(=O)NC1c1ccc(C(=O)O)cc1 (stereo not drawn) [Beispiel 84] | 40% | 1000 mg/kg |  |
| O=C1NC(=O)C(c2ccccc2)(c2ccccc2)N1 [Vergleichssubstanz A, 5,5-Diphenylhydantoin, reference compound] | 90% | 279 mg/kg | 80% |
| CC(=O)N1OCC(=O)NC1c1ccc(Br)cc1 (stereo not drawn) [Beispiel 14] | 40% | 800 mg/kg |  |
| CC(=O)N1OCC(=O)NC12CCCCC2 [Beispiel 83] | 40% | 1000 mg/kg |  |
| O=C1CONC(c2ccc(O)cc2)N1 (stereo not drawn) [Beispiel 63] | 40% | 800 mg/kg | 20% |
| CC(=O)N1OCC(=O)NC1c1cccs1 (stereo not drawn) [Beispiel 16] | 20% | 800 mg/kg | 40% |
| CC(=O)N1OCC(=O)N(C(C)=O)C1c1ccccc1 (stereo not drawn) [Beispiel 8, 2,4-Diacetyl-3-phenyltetrahydro-1,2,4-oxadiazin-5-on] | 60% | 1000 mg/kg | 40% |
| CC(=O)N1OCC(=O)NC1c1ccccc1 (stereo not drawn) [Beispiel 2, 2-Acetyl-3-phenyltetrahydro-1,2,4-oxadiazin-5-on] | 70% | 1190 mg/kg | 90% |
